Patent US7332501B2, “Indol-3-yl-carbonyl-spiro-piperidine derivatives as V1a receptor antagonists” (Hoffmann-La Roche Inc., priority 2005, dated 2008)
Where a name gives a salt, the structure may show the parent alone.

target: T1, human V1a receptor (Homo sapiens, UniProt P37288); test: human V1a receptor binding (3H-Vasopressin SPA, HEK293 membranes); details: displacement of 4 nM 3H-Vasopressin, membranes of HEK293 cells transiently transfected with human V1a receptor; Ki from IC50 by Cheng-Prussoff
T1 construct: expressed in transfected cells; host or cells: HEK293 cells, transiently transfected; cell membranes
T1 sequence (P37288 whole entry): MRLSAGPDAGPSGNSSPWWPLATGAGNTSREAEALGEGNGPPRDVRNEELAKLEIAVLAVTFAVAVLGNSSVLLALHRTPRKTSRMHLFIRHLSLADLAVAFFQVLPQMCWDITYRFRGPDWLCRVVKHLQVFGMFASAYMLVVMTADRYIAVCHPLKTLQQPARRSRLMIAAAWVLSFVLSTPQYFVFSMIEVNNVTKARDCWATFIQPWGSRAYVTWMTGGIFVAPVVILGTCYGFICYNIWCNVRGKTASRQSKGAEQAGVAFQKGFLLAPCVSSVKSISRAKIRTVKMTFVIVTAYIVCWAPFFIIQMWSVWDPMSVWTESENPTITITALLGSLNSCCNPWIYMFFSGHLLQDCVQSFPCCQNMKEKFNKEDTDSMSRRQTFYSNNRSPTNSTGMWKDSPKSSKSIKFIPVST
Method: The human V1a receptor was cloned by RT-PCR from total human liver RNA. The coding sequence was subcloned in an expression vector after sequencing to confirm the identity of the amplified sequence. […] Cell membranes were prepared from HEK293 cells transiently transfected with the expression vector and grown in 20 liter fermenters with the following protocol.
50 g cells are resuspended in 30 ml freshly prepared ice cold Lysis buffer (50 mM HEPES, 1 mM EDTA, 10 mM MgCl2 adjusted to pH=7.4+complete cocktail of protease inhibitor (Roche Diagnostics)). The cells are homogenized with Polytron for 1 min and sonicated on ice for 2×2 minutes at 80% intensity (Vibracell sonicator). The preparation is centrifuged 20 min at 500 g at 4° C., the pellet is discarded and the supernatant centrifuged 1 hour at 43,000 g at 4° C. (19,000 rpm). The pellet is resuspended in 12.5 ml Lysis buffer+12.5 ml Sucrose 20% and homogenized using a Polytron for 1-2 min. The protein concentration is determined by the Bradford method and aliquots are stored at −80° C. until use. For binding studies 60 mg Yttrium silicate SPA beads (Amersham) are mixed with an aliquot of membrane in binding buffer (50 mM Tris, 120 mM NaCl, 5 mM KCl, 2 mM CaCl2, 10 mM MgCl2) for 15 minutes with mixing. 50 ul of bead/membrane mixture is then added to each well of a 96 well plate, followed by 50 ul of 4 nM 3H-Vasopressin (American Radiolabeled Chemicals). For total binding measurement 100 ul of binding buffer are added to the respective wells, for non-specific binding 100 ul of […] cold vasopressin and for compound testing 100 ul of a serial dilution of each compound in 2% DMSO. The plate is incubated 1 h at room temperature, centrifuged 1 min at 1000 g and counted on a Packard Top-Count. Non-specific binding counts are subtracted from each well and data is normalized to the maximum specific binding set at 100%. To calculate an IC 50 the curve is fitted using a non-linear regression model (XLfit), and the Ki is calculated using the Cheng-Prussoff equation.

Row | Ki [nM] | Molecule
1 | 1.3 | CN1CCN(C(=O)Cn2cc(C(=O)N3CCC4(CC3)OC(=O)c3cc(F)ccc34)c3ccc(Cl)cc32)CC1 [Example 114, 1′-({6-Chloro-1-[2-(4-methylpiperazin-1-yl)-2-oxoethyl]-1H-indol-3-yl}carbonyl)-5-fluoro-3H-spiro[2-benzofuran-1,4′-piperidin]-3-one]
2 | 1.3 | CC(=O)NCCn1cc(C(=O)N2CCC3(CC2)OCc2ccccc23)c2ccc(Cl)cc21 [Example 270, N-{2-[6-Chloro-3-(1′H,3H-spiro[2-benzofuran-1,4′-piperidin]-1′-ylcarbonyl)-1H-indol-1-yl]ethyl}acetamide]
3 | 63.1 | CNC(=O)Cn1cc(C(=O)N2CCC3(CC2)NC(=O)c2ccccc23)c2ccc(Cl)cc21 [Example 283, 2-{6-Chloro-3-[(3-oxo-2,3-dihydro-1′H-spiro[isoindole-1,4′-piperidin]-1′-yl)carbonyl]-1H-indol-1-yl}-N-methylacetamide]
4 | 1.7 | O=C1OC2(CCN(C(=O)c3cn(CC4(F)COC4)c4cc(Cl)ccc34)CC2)c2ccccc21 [Example 189, 1′-({6-Chloro-1-[(3-fluorooxetan-3-yl)methyl]-1H-indol-3-yl}carbonyl)-3H-spiro[2-benzofuran-1,4′-piperidin]-3-one]
5 | 3.8 | O=C(c1cn(-c2ccccn2)c2cc(Cl)ccc12)N1CCC2(CC1)OCc1ccccc12 [Example 227]
6 | 15.3 | Cc1ncc(Cn2cc(C(=O)N3CCC4(CC3)OC(=O)c3cc(F)ccc34)c3ccc(Cl)cc32)c(N)n1 [Example 163, 1′-({1-[(4-Amino-2-methylpyrimidin-5-yl)methyl]-6-chloro-1H-indol-3-yl}carbonyl)-5-fluoro-3H-spiro[2-benzofuran-1,4′-piperidin]-3-one]
7 | 38.7 | O=C1OC2(CCN(C(=O)c3cn(C(=O)c4cccc(-c5ccccc5)c4)c4cc(Cl)ccc34)CC2)c2ccccc21 [Example 158, 1′-{[1-(Biphenyl-3-ylcarbonyl)-6-chloro-1H-indol-3-yl]carbonyl}-3H-spiro[2-benzofuran-1,4′-piperidin]-3-one]
8 | 8.6 | O=C(c1cn(C(=O)c2ccccc2F)c2cc(Cl)ccc12)N1CCC2(CC1)OCc1ccccc12 [Example 215]
9 | 1.2 | O=C1OC2(CCN(C(=O)c3cn(CC(=O)N4CCNCC4)c4cc(Cl)ccc34)CC2)c2ccc(F)cc21 [Example 117, 1′-{[6-Chloro-1-(2-oxo-2-piperazin-1-ylethyl)-1H-indol-3-yl]carbonyl}-5-fluoro-3H-spiro[2-benzofuran-1,4′-piperidin]-3-one]
10 | 1.5 | O=C(c1cn(CC2CNCCO2)c2cc(Cl)ccc12)N1CCC2(CC1)OCc1ccccc12 (centres unmarked) [Example 248, 1′-{[6-Chloro-1-(morpholin-2-ylmethyl)-1H-indol-3-yl]carbonyl}-3H-spiro[2-benzofuran-1,4′-piperidine]hydrochloride]
11 | 11.7 | CCN(CC)C(=O)Cn1cc(C(=O)N2CCC3(CC2)OC(=O)c2ccccc23)c2ccccc21 [Example 203, N,N-Diethyl-2-{3-[(3-oxo-1′H,3H-spiro[2-benzofuran-1,4′-piperidin]-1′-yl)carbonyl]-1H-indol-1-yl}acetamide]
12 | 3.8 | O=C1OC2(CCN(C(=O)c3cn(Cc4cc(F)cc(F)c4)c4cc(Cl)ccc34)CC2)c2ccc(Br)cc21 [Example 150, 5-Bromo-1′-{[6-chloro-1-(3,5-difluorobenzyl)-1H-indol-3-yl]carbonyl}-3H-spiro[2-benzofuran-1,4′-piperidin]-3-one]
13 | 1.3 | O=C1OC2(CCN(C(=O)c3cn(CC(=O)N4CCCCC4)c4cc(Cl)ccc34)CC2)c2ccccc21 [Example 104, 1′-{[6-Chloro-1-(2-oxo-2-piperidin-1-ylethyl)-1H-indol-3-yl]carbonyl}-3H-spiro[2-benzofuran-1,4′-piperidin]-3-one]
14 | 3.3 | Cc1cc2c(C(=O)N3CCC4(CC3)OCc3ccccc34)cn(CC(=O)N(C)C)c2cc1Cl [Example 213, 2-[6-Chloro-5-methyl-3-(1′H,3H-spiro[2-benzofuran-1,4′-piperidin]-1′-ylcarbonyl)-1H-indol-1-yl]-N,N-dimethylacetamide]

The remaining lines, values behind:

Row | Molecule | Ki [nM]
15 | 1′-({6-Chloro-1-[(2S)-pyrrolidin-2-ylmethyl]-1H-indol-3-yl}carbonyl)-3H-spiro[2-benzofuran-1,4′-piperidine [Example 267] | 1.4
16 | O=C(Cn1cc(C(=O)N2CCC3(CC2)COc2ccccc23)c2ccc(Cl)cc21)N1CCCCC1 [Example 87, 1′-{[6-chloro-1-(2-oxo-2-piperidin-1-ylethyl)-1H-indol-3-yl]carbonyl}spiro[1-benzofuran-3,4′-piperidine]] | 3.5
17 | N#CCn1cc(C(=O)N2CCC3(CC2)OCc2ccccc23)c2ccc(Cl)cc21 [Example 76, [6-chloro-3-(1′H,3H-spiro[2-benzofuran-1,4′-piperidin]-1′-ylcarbonyl)-1H-indol-1-yl]acetonitrile] | 1.7
18 | Cc1c(C(=O)N2CCC3(CC2)OC(=O)c2cccc(Cl)c23)c2ccccc2n1Cc1ccccc1 [Example 14, 1′-[(1-benzyl-2-methyl-1H-indol-3-yl)carbonyl]-7-chloro-3H-spiro[2-benzofuran-1,4′-piperidin]-3-one] | 11.2
19 | O=C(c1cn(Cc2ccccc2)c2ccccc12)N1CCC2(C=Cc3ccccc32)CC1 [Example 3, 1′-[(1-benzyl-1H-indol-3-yl)carbonyl]spiro[indene-1,4′-piperidine]] | 10.1
20 | Cc1c(C(=O)N2CCC3(CC2)OC(=O)c2ccc(OCCO)cc23)c2ccccc2n1Cc1ccccc1 [Example 122, 1′-[(1-benzyl-2-methyl-1H-indol-3-yl)carbonyl]-6-(2-hydroxyethoxy)-3H-spiro[2-benzofuran-1,4′-piperidin]-3-one] | 5.2
21 | Cc1cc(Cn2cc(C(=O)N3CCC4(CC3)OCc3ccccc34)c3ccc(Cl)cc32)no1 [Example 236, 1′-({6-Chloro-1-[(5-methylisoxazol-3-yl)methyl]-1H-indol-3-yl}carbonyl)-3H-spiro[2-benzofuran-1,4′-piperidine]] | 1.7
22 | COc1ccccc1-c1nc(Cn2c(C)c(C(=O)N3CCC4(CC3)OCc3ccccc34)c3ccccc32)c(C)o1 [Example 58, 1′-[(1-{[2-(2-methoxyphenyl)-5-methyl-1,3-oxazol-4-yl]methyl}-2-methyl-1H-indol-3-yl)carbonyl]-3H-spiro[2-benzofuran-1,4′-piperidine]] | 12.3
23 | CN1CCN(C(=O)c2[nH]c3cc(Cl)ccc3c2C(=O)N2CCC3(CC2)OC(=O)c2cc(F)ccc23)CC1 [Example 32, 1′-({6-chloro-2-[(4-methylpiperazin-1-yl)carbonyl]-1H-indol-3-yl}carbonyl)-5-fluoro-3H-spiro[2-benzofuran-1,4′-piperidin]-3-one] | 27.5
24 | CCN(CC)C(=O)c1[nH]c2cc(Cl)ccc2c1C(=O)N1CCC2(CC1)OC(=O)c1cc(F)ccc12 [Example 31, 6-chloro-N,N-diethyl-3-[(5-fluoro-3-oxo-1′H,3H-spiro[2-benzofuran-1,4′-piperidin]-1′-yl)carbonyl]-1H-indole-2-carboxamide] | 12.2
25 | O=C(c1cn(CCN2CCOCC2)c2cc(Cl)ccc12)N1CCC2(CC1)OCc1ccccc12 [Example 256, 1′-{[6-Chloro-1-(2-morpholin-4-ylethyl)-1H-indol-3-yl]carbonyl}-3H-spiro[2-benzofuran-1,4′-piperidine]] | 2.4
26 | CCC(C)C(=O)c1[nH]c2ccccc2c1C(=O)N1CCC2(CC1)OCc1ccccc12 (centres unmarked) [Example 72, 2-methyl-1-[3-(1′H,3H-spiro[2-benzofuran-1,4′-piperidin]-1′-ylcarbonyl)-1H-indol-2-yl]butan-1-one] | 2.9
27 | CN(C)C(=O)c1[nH]c2cc(Cl)ccc2c1C(=O)N1CCC2(CC1)OC(=O)c1cc(F)ccc12 [Example 29, 6-chloro-3-[(5-fluoro-3-oxo-1′H,3H-spiro[2-benzofuran-1,4′-piperidin]-1′-yl)carbonyl]-N,N-dimethyl-1H-indole-2-carboxamide] | 10.1
28 | O=C1OC2(CCN(C(=O)c3cn(Cc4cc(F)cc(F)c4)c4ccccc34)CC2)c2ccccc21 [Example 202, 1′-{[1-(3,5-Difluorobenzyl)-1H-indol-3-yl]carbonyl}-3H-spiro[2-benzofuran-1,4′-piperidin]-3-one] | 4.3
29 | O=C1OC2(CCN(C(=O)c3c4n(c5cc(Cl)ccc35)CCNC4=O)CC2)c2ccc(F)cc21 [Example 176, 1′-[(7-Chloro-1-oxo-1,2,3,4-tetrahydropyrazino[1,2-a]indol-10-yl)carbonyl]-5-fluoro-3H-spiro[2-benzofuran-1,4′-piperidin]-3-one] | 14.8
